Laboratory results from patent US10689381B2 (priority 2017, dated 2020).
Read-outs that look alike come from different tables or passages of the source.

Tests used:
L1210 = experiment: cells; format: cell-based, mouse
Procedure, shortened: (§1)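 Compound exposure ran 72 h at six concentrations (0–1000 nM or 0–10000 nM, duplicate) on cells plated at 30,000 cells/mL in 10% FBS DMEM. A closing 37 °C incubation took 15 min (HCT116) or 5 min (L1210).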

HCT116 = experiment: cells; format: cell-based, human; settings: for IC50: read-out: IC50 HCT116; for potency relative to vinblastine (more potent): vinblastine-sensitive cell lines
Procedure, shortened: as §1

| Compound | IC50 (L1210; Table 5) [nM] | IC50 (HCT116; Table 5) [nM] | also measured |
| --- | --- | --- | --- |
| CCC1(NC(=O)c2ccc3cc(NC(=O)OC(C)(C)C)ccc3c2)CC2CN(CCc3c([nH]c4ccccc34)C(C(=O)OC)(c3cc4c(cc3OC)N(C)C3C(O)(C(=O)OC)C(OC(C)=O)C5(CC)C=CCN6CCC43C65)C2)C1 (centres unmarked) [Compound 118] | – | – | IC50 (L1210; Table 4): 5 nM; IC50 (HCT116; Table 4): 6.5 nM |
| CCC1(NC(=O)c2ccc3cc(OC)ccc3c2)CC2CN(CCc3c([nH]c4ccccc34)C(C(=O)OC)(c3cc4c(cc3OC)N(C)C3C(O)(C(=O)OC)C(OC(C)=O)C5(CC)C=CCN6CCC43C65)C2)C1 (centres unmarked) [Compound 119] | – | – | IC50 (L1210; Table 4): 2.5 nM; IC50 (HCT116; Table 4): 3.5 nM |
| CCC1(NC(=O)c2ccc3cccc(OC)c3c2)CC2CN(CCc3c([nH]c4ccccc34)C(C(=O)OC)(c3cc4c(cc3OC)N(C)C3C(O)(C(=O)OC)C(OC(C)=O)C5(CC)C=CCN6CCC43C65)C2)C1 (centres unmarked) [Compound 120] | – | – | IC50 (L1210; Table 4): 10 nM; IC50 (HCT116; Table 4): 13 nM |
| CCC1(NC(=O)c2ccc3c(c2)C(C)(C)CCC3(C)C)CC2CN(CCc3c([nH]c4ccccc34)C(C(=O)OC)(c3cc4c(cc3OC)N(C)C3C(O)(C(=O)OC)C(OC(C)=O)C5(CC)C=CCN6CCC43C65)C2)C1 (centres unmarked) [Compound 123] | – | – | IC50 (L1210; Table 4): 7.4 nM; IC50 (HCT116; Table 4): 7.8 nM |
| CCC1(NC(=O)c2ccc3c(c2)CCC3)CC2CN(CCc3c([nH]c4ccccc34)C(C(=O)OC)(c3cc4c(cc3OC)N(C)C3C(O)(C(=O)OC)C(OC(C)=O)C5(CC)C=CCN6CCC43C65)C2)C1 (centres unmarked) [Compound 124] | – | – | IC50 (L1210; Table 4): 5 nM; IC50 (HCT116; Table 4): 5.6 nM; potency relative to vinblastine (more potent) (HCT116): about 2 fold |
| CCC1(NC(=O)C2Cc3ccccc3C2)CC2CN(CCc3c([nH]c4ccccc34)C(C(=O)OC)(c3cc4c(cc3OC)N(C)C3C(O)(C(=O)OC)C(OC(C)=O)C5(CC)C=CCN6CCC43C65)C2)C1 (centres unmarked) [Compound 125] | – | – | IC50 (L1210; Table 4): 30 nM; IC50 (HCT116; Table 4): 15 nM |
| CCC1(NC(=O)c2ccc3c(c2)CCCCC3)CC2CN(CCc3c([nH]c4ccccc34)C(C(=O)OC)(c3cc4c(cc3OC)N(C)C3C(O)(C(=O)OC)C(OC(C)=O)C5(CC)C=CCN6CCC43C65)C2)C1 (centres unmarked) [Compound 126] | – | – | IC50 (L1210; Table 4): 6.1 nM; IC50 (HCT116; Table 4): 4.8 nM |
| CC[C@]1(NC(=O)c2ccc3cc4ccccc4cc3c2)C[C@H]2CN(CCc3c([nH]c4ccccc34)[C@@](C(=O)OC)(c3cc4c(cc3OC)N(C)[C@H]3[C@@](O)(C(=O)OC)[C@H](OC(C)=O)[C@]5(CC)C=CCN6CC[C@]43[C@@H]65)C2)C1 [Compound 127] | – | – | IC50 (L1210; Table 4): 40 nM; IC50 (HCT116; Table 4): 60 nM |
| CCC1(NC(=O)c2ccncc2)CC2CN(CCc3c([nH]c4ccccc34)C(C(=O)OC)(c3cc4c(cc3OC)N(C)C3C(O)(C(=O)OC)C(OC(C)=O)C5(CC)C=CCN6CCC43C65)C2)C1 (centres unmarked) [Compound 128] | 0.4 | 0.4 | – |
| CCC1(NC(=O)c2cccnc2)CC2CN(CCc3c([nH]c4ccccc34)C(C(=O)OC)(c3cc4c(cc3OC)N(C)C3C(O)(C(=O)OC)C(OC(C)=O)C5(CC)C=CCN6CCC43C65)C2)C1 (centres unmarked) [Compound 129] | 0.7 | 0.6 | – |
| CCC1(NC(=O)c2ccccn2)CC2CN(CCc3c([nH]c4ccccc34)C(C(=O)OC)(c3cc4c(cc3OC)N(C)C3C(O)(C(=O)OC)C(OC(C)=O)C5(CC)C=CCN6CCC43C65)C2)C1 (centres unmarked) [Compound 130] | 55 | 50 | – |
| CC[C@]1(NC(=O)c2cnccn2)C[C@H]2CN(CCc3c([nH]c4ccccc34)[C@@](C(=O)OC)(c3cc4c(cc3OC)N(C)[C@H]3[C@@](O)(C(=O)OC)[C@H](OC(C)=O)[C@]5(CC)C=CCN6CC[C@]43[C@@H]65)C2)C1 [Compound 131] | 40 | 20 | – |
| CC[C@]1(NC(=O)c2ccnnc2)C[C@H]2CN(CCc3c([nH]c4ccccc34)[C@@](C(=O)OC)(c3cc4c(cc3OC)N(C)[C@H]3[C@@](O)(C(=O)OC)[C@H](OC(C)=O)[C@]5(CC)C=CCN6CC[C@]43[C@@H]65)C2)C1 [Compound 132] | 30 | 9 | – |
| CC[C@]1(NC(=O)c2ccoc2)C[C@H]2CN(CCc3c([nH]c4ccccc34)[C@@](C(=O)OC)(c3cc4c(cc3OC)N(C)[C@H]3[C@@](O)(C(=O)OC)[C@H](OC(C)=O)[C@]5(CC)C=CCN6CC[C@]43[C@@H]65)C2)C1 [Compound 133] | 0.7 | 0.6 | activity relative to 20′ benzamide Compound 24 (better) (HCT116): roughly 2 fold; potency relative to vinblastine (more potent) (HCT116): 10 fold |
| CCC1(NC(=O)c2ccco2)CC2CN(CCc3c([nH]c4ccccc34)C(C(=O)OC)(c3cc4c(cc3OC)N(C)C3C(O)(C(=O)OC)C(OC(C)=O)C5(CC)C=CCN6CCC43C65)C2)C1 (centres unmarked) [Compound 134] | 0.7 | 0.7 | – |
| CCC1(NC(=O)c2ccsc2)CC2CN(CCc3c([nH]c4ccccc34)C(C(=O)OC)(c3cc4c(cc3OC)N(C)C3C(O)(C(=O)OC)C(OC(C)=O)C5(CC)C=CCN6CCC43C65)C2)C1 (centres unmarked) [Compound 135] | 0.5 | 0.7 | – |

| Compound | IC50 (L1210; Table 5) [nM] | IC50 (HCT116; Table 5) [nM] | also measured |
| --- | --- | --- | --- |
| CCC1(NC(=O)c2cccs2)CC2CN(CCc3c([nH]c4ccccc34)C(C(=O)OC)(c3cc4c(cc3OC)N(C)C3C(O)(C(=O)OC)C(OC(C)=O)C5(CC)C=CCN6CCC43C65)C2)C1 (centres unmarked) [Compound 136] | 0.6 | 0.6 | activity relative to 20′ benzamide Compound 24 (better) (HCT116): roughly 2 fold; potency relative to vinblastine (more potent) (HCT116): 10 fold |
| CC[C@]1(NC(=O)c2cocn2)C[C@H]2CN(CCc3c([nH]c4ccccc34)[C@@](C(=O)OC)(c3cc4c(cc3OC)N(C)[C@H]3[C@@](O)(C(=O)OC)[C@H](OC(C)=O)[C@]5(CC)C=CCN6CC[C@]43[C@@H]65)C2)C1 [Compound 137] | 4.5 | 4 | – |
| CC[C@]1(NC(=O)c2cnco2)C[C@H]2CN(CCc3c([nH]c4ccccc34)[C@@](C(=O)OC)(c3cc4c(cc3OC)N(C)[C@H]3[C@@](O)(C(=O)OC)[C@H](OC(C)=O)[C@]5(CC)C=CCN6CC[C@]43[C@@H]65)C2)C1 [Compound 138] | 3.9 | 3.5 | – |
| CC[C@]1(NC(=O)c2cscn2)C[C@H]2CN(CCc3c([nH]c4ccccc34)[C@@](C(=O)OC)(c3cc4c(cc3OC)N(C)[C@H]3[C@@](O)(C(=O)OC)[C@H](OC(C)=O)[C@]5(CC)C=CCN6CC[C@]43[C@@H]65)C2)C1 [Compound 139] | 5.6 | 6.3 | – |
| CCC1(NC(=O)c2cncs2)CC2CN(CCc3c([nH]c4ccccc34)C(C(=O)OC)(c3cc4c(cc3OC)N(C)C3C(O)(C(=O)OC)C(OC(C)=O)C5(CC)C=CCN6CCC43C65)C2)C1 (centres unmarked) [Compound 140] | 1.8 | 0.6 | – |
| CCC1(NC(=O)c2cncn2C)CC2CN(CCc3c([nH]c4ccccc34)C(C(=O)OC)(c3cc4c(cc3OC)N(C)C3C(O)(C(=O)OC)C(OC(C)=O)C5(CC)C=CCN6CCC43C65)C2)C1 (centres unmarked) [Compound 141] | 4 | 2.2 | – |
| CCC1(NC(=O)c2ccon2)CC2CN(CCc3c([nH]c4ccccc34)C(C(=O)OC)(c3cc4c(cc3OC)N(C)C3C(O)(C(=O)OC)C(OC(C)=O)C5(CC)C=CCN6CCC43C65)C2)C1 (centres unmarked) [Compound 143] | 4.5 | 7 | – |
| CCC1(NC(=O)C2CCOCC2)CC2CN(CCc3c([nH]c4ccccc34)C(C(=O)OC)(c3cc4c(cc3OC)N(C)C3C(O)(C(=O)OC)C(OC(C)=O)C5(CC)C=CCN6CCC43C65)C2)C1 (centres unmarked) [Compound 144] | 70 | 35 | – |
| CCC1(NC(=O)C2CCSCC2)CC2CN(CCc3c([nH]c4ccccc34)C(C(=O)OC)(c3cc4c(cc3OC)N(C)C3C(O)(C(=O)OC)C(OC(C)=O)C5(CC)C=CCN6CCC43C65)C2)C1 (centres unmarked) [Compound 145] | 460 | 450 | – |
| CCC1(NC(=O)C2CCN(C(=O)OC(C)(C)C)CC2)CC2CN(CCc3c([nH]c4ccccc34)C(C(=O)OC)(c3cc4c(cc3OC)N(C)C3C(O)(C(=O)OC)C(OC(C)=O)C5(CC)C=CCN6CCC43C65)C2)C1 (centres unmarked) [Compound 147] | 50 | 45 | – |
| CCC1(NC(=O)C2CCN(C)CC2)CC2CN(CCc3c([nH]c4ccccc34)C(C(=O)OC)(c3cc4c(cc3OC)N(C)C3C(O)(C(=O)OC)C(OC(C)=O)C5(CC)C=CCN6CCC43C65)C2)C1 (centres unmarked) [Compound 148] | 5300 | 4400 | – |
| CCC1(NC(=O)c2ccc3cccnc3c2)CC2CN(CCc3c([nH]c4ccccc34)C(C(=O)OC)(c3cc4c(cc3OC)N(C)C3C(O)(C(=O)OC)C(OC(C)=O)C5(CC)C=CCN6CCC43C65)C2)C1 (centres unmarked) [Compound 149] | – | – | IC50 (L1210; Table 6): 0.6 nM; IC50 (HCT116; Table 6): 0.7 nM |
| CCC1(NC(=O)c2ccc3ncccc3c2)CC2CN(CCc3c([nH]c4ccccc34)C(C(=O)OC)(c3cc4c(cc3OC)N(C)C3C(O)(C(=O)OC)C(OC(C)=O)C5(CC)C=CCN6CCC43C65)C2)C1 (centres unmarked) [Compound 150] | – | – | IC50 (L1210; Table 6): 0.6 nM; IC50 (HCT116; Table 6): 0.6 nM |
| CCC1(NC(=O)c2cnc3ccccc3c2)CC2CN(CCc3c([nH]c4ccccc34)C(C(=O)OC)(c3cc4c(cc3OC)N(C)C3C(O)(C(=O)OC)C(OC(C)=O)C5(CC)C=CCN6CCC43C65)C2)C1 (centres unmarked) [Compound 151] | – | – | IC50 (L1210; Table 6): 0.7 nM; IC50 (HCT116; Table 6): 0.6 nM |
| CCC1(NC(=O)c2ccc3ccccc3n2)CC2CN(CCc3c([nH]c4ccccc34)C(C(=O)OC)(c3cc4c(cc3OC)N(C)C3C(O)(C(=O)OC)C(OC(C)=O)C5(CC)C=CCN6CCC43C65)C2)C1 (centres unmarked) [Compound 152] | – | – | IC50 (L1210; Table 6): 40 nM; IC50 (HCT116; Table 6): 40 nM; loss in activity when acyl substitution site is ortho to the basic nitrogen (HCT116; quinolyl series): about 100 fold |
